Measured values: ChEMBL document CHEMBL2216752, “Carnitine palmitoyltransferase (CPT) modulators: a medicinal chemistry perspective on 35 years of research” (J Med Chem, 2011)

How the values were obtained:
[1] = Inhibition of carnitine palmitoyltransferase in 18 hr fasted rat hepatocytes; type: cell-based; conditions: hepatocyte
[2] = Inhibition of carnitine palmitoyltransferase in 18 hr fasted rat liver homogenates; type: tissue-based
[3] = Inhibition of rat FAO
[4] = Inhibition of human FAO
[5] = target: T1, Carnitine O-palmitoyltransferase 2, mitochondrial (Homo sapiens, UniProt P23786); assay: Inhibition of human CPT2
T1 sequence (P23786 whole entry): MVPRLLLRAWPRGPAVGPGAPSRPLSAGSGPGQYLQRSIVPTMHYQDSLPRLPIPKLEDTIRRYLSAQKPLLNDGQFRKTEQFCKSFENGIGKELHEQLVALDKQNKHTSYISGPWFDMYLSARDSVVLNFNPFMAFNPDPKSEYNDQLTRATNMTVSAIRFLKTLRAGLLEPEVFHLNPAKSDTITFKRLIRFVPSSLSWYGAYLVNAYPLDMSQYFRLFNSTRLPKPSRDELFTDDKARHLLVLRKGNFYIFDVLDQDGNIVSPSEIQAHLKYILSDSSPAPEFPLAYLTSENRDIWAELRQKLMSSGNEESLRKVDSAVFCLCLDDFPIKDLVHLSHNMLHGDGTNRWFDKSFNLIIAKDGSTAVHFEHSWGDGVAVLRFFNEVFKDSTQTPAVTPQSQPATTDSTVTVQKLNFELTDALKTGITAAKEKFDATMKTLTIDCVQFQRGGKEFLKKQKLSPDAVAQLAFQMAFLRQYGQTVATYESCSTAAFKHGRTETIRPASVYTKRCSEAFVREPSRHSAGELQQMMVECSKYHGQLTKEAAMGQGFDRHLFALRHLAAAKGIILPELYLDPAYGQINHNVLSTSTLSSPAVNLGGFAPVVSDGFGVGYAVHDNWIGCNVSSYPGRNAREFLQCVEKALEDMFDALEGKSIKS

[6] = Inhibition of FAO
[7] = target: T2, Carnitine O-palmitoyltransferase 1, muscle isoform (Homo sapiens, UniProt Q92523); assay: Inhibition of human CPT1B
T2 sequence (Q92523 whole entry): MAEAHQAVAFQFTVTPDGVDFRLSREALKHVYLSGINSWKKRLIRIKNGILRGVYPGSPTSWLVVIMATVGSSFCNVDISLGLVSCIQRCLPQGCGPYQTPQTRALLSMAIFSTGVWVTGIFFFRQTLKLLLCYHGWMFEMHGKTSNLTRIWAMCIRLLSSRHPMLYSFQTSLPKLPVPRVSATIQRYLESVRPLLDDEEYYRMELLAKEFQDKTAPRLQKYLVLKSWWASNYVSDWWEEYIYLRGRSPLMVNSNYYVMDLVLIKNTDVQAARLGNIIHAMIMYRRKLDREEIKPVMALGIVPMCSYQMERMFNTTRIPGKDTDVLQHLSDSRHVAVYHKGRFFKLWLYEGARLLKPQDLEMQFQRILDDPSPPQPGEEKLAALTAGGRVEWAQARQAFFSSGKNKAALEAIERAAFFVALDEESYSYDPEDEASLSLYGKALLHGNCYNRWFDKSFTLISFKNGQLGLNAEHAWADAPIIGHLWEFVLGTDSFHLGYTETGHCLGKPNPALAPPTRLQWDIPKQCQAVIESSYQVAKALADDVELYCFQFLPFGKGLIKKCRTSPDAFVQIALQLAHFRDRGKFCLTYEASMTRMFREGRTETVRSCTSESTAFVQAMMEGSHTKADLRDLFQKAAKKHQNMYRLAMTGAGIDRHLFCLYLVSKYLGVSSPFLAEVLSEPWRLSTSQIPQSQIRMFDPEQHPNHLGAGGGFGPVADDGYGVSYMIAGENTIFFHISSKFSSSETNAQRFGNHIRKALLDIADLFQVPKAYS

[8] = target: T3, Carnitine O-palmitoyltransferase 1, liver isoform (Homo sapiens, UniProt P50416); assay: Inhibition of human CPT1A
T3 sequence (P50416 whole entry): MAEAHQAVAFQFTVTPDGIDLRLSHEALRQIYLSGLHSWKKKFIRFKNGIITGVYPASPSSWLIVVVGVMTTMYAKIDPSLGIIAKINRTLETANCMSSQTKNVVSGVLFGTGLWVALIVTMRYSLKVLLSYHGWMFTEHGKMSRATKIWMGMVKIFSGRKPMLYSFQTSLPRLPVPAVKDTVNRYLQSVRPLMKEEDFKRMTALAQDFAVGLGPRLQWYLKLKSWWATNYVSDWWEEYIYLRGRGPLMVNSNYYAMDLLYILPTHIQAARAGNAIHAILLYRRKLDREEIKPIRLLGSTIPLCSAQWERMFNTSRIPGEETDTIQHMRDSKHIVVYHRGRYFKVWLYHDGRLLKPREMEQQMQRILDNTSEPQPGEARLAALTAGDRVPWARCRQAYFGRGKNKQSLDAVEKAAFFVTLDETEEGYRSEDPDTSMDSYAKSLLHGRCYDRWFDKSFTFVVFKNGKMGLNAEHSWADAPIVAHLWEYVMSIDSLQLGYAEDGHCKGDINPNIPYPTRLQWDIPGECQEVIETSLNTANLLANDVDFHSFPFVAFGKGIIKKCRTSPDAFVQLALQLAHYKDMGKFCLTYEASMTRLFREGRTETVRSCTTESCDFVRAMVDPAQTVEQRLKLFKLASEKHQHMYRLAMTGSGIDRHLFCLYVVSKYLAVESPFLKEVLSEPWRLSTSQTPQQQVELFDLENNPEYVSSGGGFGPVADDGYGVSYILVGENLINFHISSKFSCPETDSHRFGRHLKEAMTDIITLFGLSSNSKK

[9] = target: T4, Carnitine O-palmitoyltransferase 2, mitochondrial (Rattus norvegicus, UniProt P18886); assay: Inhibition of CPT2 in rat mitochondria using [3H]carnitine by radiometric method
T4 sequence (P18886 whole entry): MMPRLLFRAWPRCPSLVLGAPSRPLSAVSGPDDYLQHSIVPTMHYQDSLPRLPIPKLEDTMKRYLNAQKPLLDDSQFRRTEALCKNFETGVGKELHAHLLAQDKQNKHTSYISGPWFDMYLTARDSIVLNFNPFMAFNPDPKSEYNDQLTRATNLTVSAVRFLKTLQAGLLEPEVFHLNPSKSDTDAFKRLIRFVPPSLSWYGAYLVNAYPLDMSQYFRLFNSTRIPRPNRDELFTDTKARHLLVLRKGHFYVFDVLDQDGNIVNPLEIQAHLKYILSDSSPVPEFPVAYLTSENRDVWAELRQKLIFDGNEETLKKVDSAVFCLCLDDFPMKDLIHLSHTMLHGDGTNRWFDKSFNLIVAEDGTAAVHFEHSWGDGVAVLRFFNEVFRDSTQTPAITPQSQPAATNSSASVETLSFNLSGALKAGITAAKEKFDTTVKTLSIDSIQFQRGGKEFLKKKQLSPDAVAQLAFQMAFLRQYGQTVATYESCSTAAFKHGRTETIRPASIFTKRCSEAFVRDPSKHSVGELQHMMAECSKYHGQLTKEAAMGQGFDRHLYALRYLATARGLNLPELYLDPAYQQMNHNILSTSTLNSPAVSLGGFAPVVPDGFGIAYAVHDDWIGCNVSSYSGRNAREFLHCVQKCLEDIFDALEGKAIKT

[10] = target: T5, Carnitine O-palmitoyltransferase 1, liver isoform (Rattus norvegicus, UniProt P32198); assay: Inhibition of CPT1 in rat liver mitochondria using [3H]carnitine by radiometric method
T5 sequence (P32198 whole entry): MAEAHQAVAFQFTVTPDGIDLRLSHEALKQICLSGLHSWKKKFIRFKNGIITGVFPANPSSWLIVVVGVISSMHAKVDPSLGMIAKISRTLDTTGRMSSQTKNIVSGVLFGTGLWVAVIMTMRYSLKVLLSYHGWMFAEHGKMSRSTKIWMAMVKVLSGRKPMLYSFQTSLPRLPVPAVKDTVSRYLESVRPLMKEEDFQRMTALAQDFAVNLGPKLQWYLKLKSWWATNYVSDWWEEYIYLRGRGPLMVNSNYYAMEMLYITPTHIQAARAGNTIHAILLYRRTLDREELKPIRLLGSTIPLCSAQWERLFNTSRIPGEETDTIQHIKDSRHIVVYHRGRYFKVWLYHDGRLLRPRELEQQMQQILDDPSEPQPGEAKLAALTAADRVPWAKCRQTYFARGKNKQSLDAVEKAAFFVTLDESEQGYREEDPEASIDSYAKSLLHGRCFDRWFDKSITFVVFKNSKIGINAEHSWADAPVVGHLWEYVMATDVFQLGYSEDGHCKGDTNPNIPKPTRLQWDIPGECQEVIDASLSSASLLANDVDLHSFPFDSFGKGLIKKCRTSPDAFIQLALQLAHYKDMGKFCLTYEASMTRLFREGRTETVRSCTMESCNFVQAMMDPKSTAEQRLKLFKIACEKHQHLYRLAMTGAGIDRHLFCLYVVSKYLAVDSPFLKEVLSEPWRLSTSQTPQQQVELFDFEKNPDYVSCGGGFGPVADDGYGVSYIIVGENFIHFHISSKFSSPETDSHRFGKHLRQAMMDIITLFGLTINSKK

[11] = target: Carnitine O-palmitoyltransferase 1, muscle isoform (Rattus norvegicus) (UniProt Q63704); assay: Inhibition of CPT1 in rat cardiac mitochondria using [3H]carnitine by radiometric method
Rattus norvegicus [12] = assay: Reduction in plasma glucose level in fasted Wistar rat at 16 mg/kg, ip; type: functional; set-up: scale not given: the % may be the effect or the level left; conditions: route intraperitoneal
Rattus norvegicus [13] = assay: Increase in plasma LDL level in fasted Wistar rat at 16 mg/kg, ip; type: functional; conditions: route intraperitoneal
Rattus norvegicus [14] = assay: Increase in plasma VLDL level in fasted Wistar rat at 16 mg/kg, ip; type: functional; conditions: route intraperitoneal
Rattus norvegicus [15] = assay: Increase in plasma FFA level in fasted Wistar rat at 16 mg/kg, ip; type: functional; conditions: route intraperitoneal
Rattus norvegicus [16] = assay: Increase in plasma TG level in fasted Wistar rat at 16 mg/kg, ip; type: functional; conditions: route intraperitoneal
Rattus norvegicus [17] = assay: Reduction in palmitate oxidation in rat liver mitochondria at 18 mg/kg, ip administered as single dose measured 24 hrs post dose; type: functional; set-up: scale not given: the % may be the effect or the level left; conditions: route intraperitoneal
[18] = target: T4, Carnitine O-palmitoyltransferase 2, mitochondrial; assay: Inhibition of CPT2 in 24 hrs fasted rat liver mitochondria assessed as palmitoylcarnitine oxidation by radiometry
[19] = Inhibition of carnitine palmitoyltransferase in 24 hrs fasted rat liver mitochondria assessed as palmitoylcarnitine oxidation by radiometry
[20] = Inhibition of carnitine palmitoyltransferase in 20 hrs fasted Sprague-Dawley rat liver mitochondria assessed as palmitate oxidation by radiometry
[21] = Inhibition of carnitine palmitoyltransferase in 20 hrs fasted Sprague-Dawley rat liver mitochondria assessed as palmitoylcarnitine oxidation by radiometry
[22] = target: T4, Carnitine O-palmitoyltransferase 2, mitochondrial; assay: Inhibition of rat CPT2
[23] = Inhibition of carnitine palmitoyltransferase in rat mitochondria
[24] = Inhibition of FAO in hepatocytes; type: cell-based; conditions: hepatocyte
[25] = target: T3, Carnitine O-palmitoyltransferase 1, liver isoform; assay: Inhibition of CPT1 in liver mitochondria
[26] = Inhibition of Phospholipase A2

Chain of Carnitine O-palmitoyltransferase 1, muscle isoform (Rattus norvegicus) (Q63704 whole entry, looked up, canonical isoform): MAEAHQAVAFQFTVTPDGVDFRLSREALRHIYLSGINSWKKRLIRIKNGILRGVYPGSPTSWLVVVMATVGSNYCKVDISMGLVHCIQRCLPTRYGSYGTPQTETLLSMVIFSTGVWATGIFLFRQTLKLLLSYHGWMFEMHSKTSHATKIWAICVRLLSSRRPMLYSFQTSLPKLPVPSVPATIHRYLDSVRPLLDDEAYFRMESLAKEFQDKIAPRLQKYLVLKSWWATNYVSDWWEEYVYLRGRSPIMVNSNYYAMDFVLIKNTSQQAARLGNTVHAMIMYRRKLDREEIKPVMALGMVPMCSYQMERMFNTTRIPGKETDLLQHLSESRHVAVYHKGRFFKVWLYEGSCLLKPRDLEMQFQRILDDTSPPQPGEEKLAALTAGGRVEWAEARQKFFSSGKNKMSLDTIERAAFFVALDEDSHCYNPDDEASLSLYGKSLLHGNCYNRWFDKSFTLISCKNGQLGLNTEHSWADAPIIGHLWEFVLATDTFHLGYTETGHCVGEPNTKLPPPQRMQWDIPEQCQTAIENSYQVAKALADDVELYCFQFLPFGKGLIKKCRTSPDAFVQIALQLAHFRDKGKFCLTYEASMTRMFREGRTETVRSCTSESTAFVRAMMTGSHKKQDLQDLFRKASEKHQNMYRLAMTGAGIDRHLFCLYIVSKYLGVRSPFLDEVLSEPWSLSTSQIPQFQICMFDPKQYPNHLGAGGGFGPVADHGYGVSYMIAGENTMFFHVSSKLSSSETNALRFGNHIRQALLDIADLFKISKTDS

## CCCCCCCCCCCCCCCC(=O)N[C@H](CC(=O)[O-])C[N+](C)(C)C [PALMITOYLAMINOCARNITINE]
[1]
  IC50: 1200 nM
[2]
  IC50: 1300 nM
[3]
  IC50: 0.27 µM
[4]
  IC50: 2.8 µM
[5]
  IC50: 0.14 µM
[6]
  IC50: 50 nM
[7]
  IC50: 21.7 µM
[8]
  IC50: 2.67 µM

## C1CCC(C(CC2CCCCN2)C2CCCCC2)CC1 (centres undefined) [PERHEXILINE]
[3]
  IC50: 21.4 µM
[4]
  IC50: 22.4 µM
[5]
  IC50: 72.8 µM
[9]
  IC50: 79 µM
[10]
  IC50: 148 µM
[7]
  IC50: > 100 µM
[8]
  IC50: > 100 µM
[11]
  IC50: 77 µM

## C[N+](C)(C)C[C@H](N)CC(=O)[O-]
Rattus norvegicus [12]
  Activity: 16%
Rattus norvegicus [13]
  Activity: 88%
Rattus norvegicus [14]
  Activity: 1034%
Rattus norvegicus [15]
  Activity: 244%
Rattus norvegicus [16]
  Activity: 684%
Rattus norvegicus [17]
  Activity: 68%
[18]
  IC50: 800 nM
[19]
  IC50: 5.4 µM
[20]
  IC50: 3.2 µM
[21]
  IC50: 12 µM
[5]
  IC50: 3.9 µM
[22]
  IC50: 5.1 µM
[23]
  IC50: 3.2 µM
[7]
  IC50: > 100 µM
[8]
  IC50: 76.4 µM

## CCCCCCOc1cccc(OCCCCCC(=O)NC2(CC(=O)[O-])CC[N+](C)(C)CC2)c1
[24]
  IC50: 19 µM

## COc1ccc(CN2CCN(CCCSc3cc(C(C)(C)C)c(O)c(C(C)(C)C)c3)CC2)c(OC)c1OC
[25]
  IC50: 51 µM

## COC(=O)C1(C(F)CCCCc2ccccc2)CO1 (centres undefined)
[26]
  IC50: 2600 nM
